In patent US6525077B2, “Cyanoguanidine prodrugs” (Leo Pharmaceutical Products Ltd. A/S, priority 2000, dated 2003):
≈ marks a conversion by molar mass, not a printed value.

Assays:
Solubility in water = format: physicochemical
Description: The solubility in water of compounds of the present invention was determined by shaking the compounds in water for one hour at room temperature followed by filtration and determination of the concentration of the compound in the filtrate by HPLC. […]

human tumour cells = conditions: nude mice transplanted with human tumour cells, also paclitaxel-resistant tumour cells; cited from earlier work
[1] = tested on: human lung cancer tumour xenograft; conditions: cited from earlier work
[2] = tested on: normal human endothelial cells; conditions: cited from earlier work
[3] = tested on: human lung and breast cancer cell lines; conditions: cited from earlier work

| SMILES | Solubility in water (Solubility in water) | antitumour activity in vivo (human tumour cells) | antitumour activity in the nude mouse model [1] | antiproliferative activity on normal human endothelial cells [2] | antiproliferative activity in vitro [3] | solubility at 1 h (Solubility in water; thermodynamic from solid, shaken in water for one hour at room temperature, filtration, filtrate by HPLC) | solubility (in words) (Solubility in water; water) |
| --- | --- | --- | --- | --- | --- | --- | --- |
| COCCOCCOCCOCC(=O)OC[n+]1ccc(NC(=NC#N)NCCCCCCOc2ccc(Cl)cc2)cc1.[Cl-] [Example 8, 1-[2-(2-(2-Methoxyethoxy)-ethoxy)-ethoxy-acetoxymethyl]-4-[N′-cyano-N″-(6-(4-chlorophenoxy)-hexyl)-N-guanidino]-pyridinium chloride] | >50 mg/mL | – | – | – | – | – | – |
| COCCOCCOCCOCCOC(=O)OC[n+]1ccc(NC(=NC#N)NCCCCCCOc2ccc(Cl)cc2)cc1.[Cl-] [Example 9, 1-[2-(2-(2-(2-Methoxyethoxy)-ethoxy)-ethoxy)-ethoxy-carbonyloxymethyl]-4-[N′-cyano-N″-(6-(4-chlorophenoxy)-hexyl)-N-guanidino]-pyridinium chloride] | >50 mg/mL | – | – | – | – | – | – |
| N#CNC(=Nc1ccncc1)NCCCCCCOc1ccc(Cl)cc1 [N-(6-(4-chlorophenoxy)-hexyl)-N′-cyano-N″-(4-pyridyl)-guanidine] | – | substantial antitumour activity | potent antitumour activity | considerably less antiproliferative activity | high antiproliferative activity | 0.0002 mg/mL (≈ 0.538 µM) | for all practical purposes insoluble |
